Assay results from ChEMBL document CHEMBL1154843, “Nakijiquinones J--R, sesquiterpenoid quinones with an amine residue from okinawan marine sponges” (J Nat Prod, 2010).
Calls of active or inactive are those of the source. The rule behind the calls is not given here.

Assays:
[1] = molecular target: Epidermal growth factor receptor (Homo sapiens) (UniProt P00533); assay: Inhibition of EGFR at 1 mM
[2] = molecular target: Receptor tyrosine-protein kinase erbB-2 (Homo sapiens) (UniProt P04626); assay: Inhibition of HER2 at 1 mM
Chain of Receptor tyrosine-protein kinase erbB-2 (Homo sapiens) (P04626 whole entry): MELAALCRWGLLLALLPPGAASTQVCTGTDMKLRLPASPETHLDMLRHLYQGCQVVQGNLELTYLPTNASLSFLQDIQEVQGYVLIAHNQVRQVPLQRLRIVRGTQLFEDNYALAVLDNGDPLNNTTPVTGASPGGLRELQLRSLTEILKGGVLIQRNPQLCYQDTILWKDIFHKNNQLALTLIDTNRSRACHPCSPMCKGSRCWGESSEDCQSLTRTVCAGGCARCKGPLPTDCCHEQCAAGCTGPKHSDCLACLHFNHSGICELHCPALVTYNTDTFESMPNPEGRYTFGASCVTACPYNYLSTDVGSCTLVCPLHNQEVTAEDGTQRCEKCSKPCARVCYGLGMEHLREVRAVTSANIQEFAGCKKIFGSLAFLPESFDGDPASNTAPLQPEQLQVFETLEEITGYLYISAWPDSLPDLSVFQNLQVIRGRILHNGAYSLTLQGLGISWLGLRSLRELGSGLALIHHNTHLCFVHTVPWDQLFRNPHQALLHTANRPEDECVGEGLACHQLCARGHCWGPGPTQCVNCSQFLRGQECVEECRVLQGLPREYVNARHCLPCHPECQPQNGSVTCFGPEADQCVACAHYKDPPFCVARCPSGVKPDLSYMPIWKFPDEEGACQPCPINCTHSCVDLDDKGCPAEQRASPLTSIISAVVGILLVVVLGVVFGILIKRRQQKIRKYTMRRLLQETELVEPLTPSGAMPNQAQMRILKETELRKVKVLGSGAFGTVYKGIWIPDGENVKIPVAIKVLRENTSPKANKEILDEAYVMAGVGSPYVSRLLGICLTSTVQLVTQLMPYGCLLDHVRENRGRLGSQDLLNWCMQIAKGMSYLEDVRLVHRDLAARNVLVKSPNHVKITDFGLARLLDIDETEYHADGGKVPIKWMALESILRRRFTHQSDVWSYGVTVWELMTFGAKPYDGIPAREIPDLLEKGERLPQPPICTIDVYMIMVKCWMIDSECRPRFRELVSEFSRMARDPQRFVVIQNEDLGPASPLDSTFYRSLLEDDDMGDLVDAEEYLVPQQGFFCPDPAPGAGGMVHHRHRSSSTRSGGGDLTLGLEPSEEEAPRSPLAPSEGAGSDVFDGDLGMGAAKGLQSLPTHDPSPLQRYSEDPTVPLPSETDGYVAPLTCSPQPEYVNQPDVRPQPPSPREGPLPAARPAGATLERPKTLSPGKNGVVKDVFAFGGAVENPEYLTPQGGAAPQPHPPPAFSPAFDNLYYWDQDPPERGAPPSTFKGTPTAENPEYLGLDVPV

Chain of Epidermal growth factor receptor (Homo sapiens) (P00533 whole entry): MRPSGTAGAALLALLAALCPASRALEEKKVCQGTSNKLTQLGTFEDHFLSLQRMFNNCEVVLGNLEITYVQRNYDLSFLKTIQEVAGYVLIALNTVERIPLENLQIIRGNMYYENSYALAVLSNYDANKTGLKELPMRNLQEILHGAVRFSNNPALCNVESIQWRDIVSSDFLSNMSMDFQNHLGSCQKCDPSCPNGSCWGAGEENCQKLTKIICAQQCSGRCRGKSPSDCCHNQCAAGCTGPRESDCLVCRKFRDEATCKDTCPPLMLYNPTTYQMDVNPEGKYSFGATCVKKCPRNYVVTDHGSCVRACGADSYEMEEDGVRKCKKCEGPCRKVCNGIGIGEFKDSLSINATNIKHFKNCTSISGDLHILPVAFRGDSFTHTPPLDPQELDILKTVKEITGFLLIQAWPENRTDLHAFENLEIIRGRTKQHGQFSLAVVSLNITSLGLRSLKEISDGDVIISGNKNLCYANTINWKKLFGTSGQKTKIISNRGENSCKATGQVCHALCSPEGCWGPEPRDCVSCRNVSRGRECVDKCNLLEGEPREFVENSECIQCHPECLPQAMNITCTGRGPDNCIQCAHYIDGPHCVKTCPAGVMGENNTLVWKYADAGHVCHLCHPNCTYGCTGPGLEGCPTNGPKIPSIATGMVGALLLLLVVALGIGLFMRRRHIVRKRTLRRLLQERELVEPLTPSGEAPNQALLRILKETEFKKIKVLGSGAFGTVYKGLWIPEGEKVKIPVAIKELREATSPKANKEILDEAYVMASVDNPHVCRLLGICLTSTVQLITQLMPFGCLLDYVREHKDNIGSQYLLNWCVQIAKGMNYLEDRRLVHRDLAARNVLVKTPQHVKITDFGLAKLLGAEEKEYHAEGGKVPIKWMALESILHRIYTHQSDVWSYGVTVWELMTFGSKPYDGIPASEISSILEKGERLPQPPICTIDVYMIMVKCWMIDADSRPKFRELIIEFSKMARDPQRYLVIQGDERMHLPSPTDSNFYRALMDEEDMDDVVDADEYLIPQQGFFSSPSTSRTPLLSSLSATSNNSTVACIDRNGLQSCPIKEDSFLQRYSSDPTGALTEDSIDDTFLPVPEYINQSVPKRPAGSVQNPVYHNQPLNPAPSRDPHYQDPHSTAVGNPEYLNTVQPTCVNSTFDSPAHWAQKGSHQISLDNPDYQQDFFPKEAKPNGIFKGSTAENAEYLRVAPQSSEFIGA

Compound | inhibition [1] | inhibition [2]
C[C@H]1CC=C2[C@@H](CCCC2(C)C)[C@]1(C)CC1=C(O)C(=O)C=C(NCCc2ccccc2)C1=O | 76% | inactive
CC1=CCC[C@H]2[C@](C)(CC3=C(O)C(=O)C=C(NCCC(C)C)C3=O)[C@@H](C)CC[C@]12C | inactive | 66%
CC1=CCC[C@H]2[C@](C)(CC3=C(O)C(=O)C=C(NCCc4ccccc4)C3=O)[C@@H](C)CC[C@]12C | inactive | inactive
CC[C@H](C)CNC1=CC(=O)C(O)=C(C[C@@]2(C)[C@@H]3CCCC(C)(C)C3=CC[C@@H]2C)C1=O | inactive | inactive
C=C1CCC[C@H]2[C@](C)(CC3=C(O)C(=O)C=C(NC[C@@H](C)CC)C3=O)[C@@H](C)CC[C@]12C | inactive | inactive
CC1=CCC[C@H]2[C@](C)(CC3=C(O)C(=O)C=C(NCCS(=O)(=O)O)C3=O)[C@@H](C)CC[C@]12C | > 99% | 52%
CC1=CCC[C@H]2[C@](C)(CC3=C(O)C(=O)C=C(NCC(C)C)C3=O)[C@@H](C)CC[C@]12C | inactive | 59%
CC(C)CCNC1=CC(=O)C(O)=C(C[C@@]2(C)[C@@H]3CCCC(C)(C)C3=CC[C@@H]2C)C1=O | inactive | inactive
CC[C@H](C)CNC1=CC(=O)C(O)=C(C[C@]2(C)[C@@H](C)CC[C@]3(C)C(C)=CCC[C@@H]23)C1=O | inactive | inactive
